Measurements: patent US4031235A, “Insecticidal substituted acetate compounds” (Sumitomo Chemical Company, Limited, priority 1972, dated 1977)
Converted amounts (≈) assume the structure as drawn.

system: Larvae of Mosquito (Culex pipiens); assay: Insecticidal activity on larvae of mosquito (Experimental Example 2); assay type: in vivo; conditions: 24 h, read-out: LC50 (50% lethal concentration)
Procedure: An emulsifiable concentrate was prepared by blending each of the compounds (1) to (300) of the present invention, xylol and Sorpol SM-200 (trade name; manufactured by Toho Chemical Co., Ltd.) in a proportion of 25%, 50% and 25% (by weight), respectively. 20 to 25 day-old rice plants after seeding were grown in pots and sprayed with each 300-fold dilute solution of the emulsifiable concentrates thus prepared and a 300-fold dilute solution of carbaryl 30% wettable powder diluted with water as a control commercial agent in an amount of 10 ml/pot in each case and then the pots were covered by a cylindrical metal net. 15 small brown planthoppers (Delphacodes striatella Fallen) per group were released in each of the pots treated with carbaryl wettable powder, and compound (1) to (21) and (102) to (110), while 15 green rice leafhopper (Nephotettix bipuntatus cincticeps Uhler) per group were released in each of the pots treated with the carbaryl wettable powder and compounds (22) to (101) and (111) to (300).
Of the emulsifiable concentrates prepared in Experimental Example 1, each of those prepared from the compounds of Table 1 below was diluted with water to each of test concentrations and a 200 ml portion thereof was added to a 300 ml volume beaker. 30 larvae of mosquito per group were released in each of the beaker and allowed to stand for 1 day. Survival was observed and a LC50 (50% lethal concentration) was determined by calculating a percent killing in each case. As a control, lindane emulsifiable concentrate was used.

`C=C(C)C(C(=O)OCc1cccc(Oc2ccccc2)c1)c1cccc(Cl)c1` (stereo not drawn) [compound 120, 3'-Phenoxybenzyl-α-isopropenyl-3-chlorophenylacetate] and `C=C(C)C(C(=O)OCc1cccc(Oc2ccccc2)c1)c1ccc(CC)cc1` (stereo not drawn) [compound 126, 3'-Phenoxybenzyl-α-isopropenyl-4-ethylphenylacetate] are within 1.5-fold of each other in LC50: 4 ng/mL (≈ 0.0102 µM) for the first, 5.6 ng/mL (≈ 0.0145 µM) for the second.

`C=C(C)C(C(=O)OCc1coc(Oc2ccccc2)c1)c1ccc(C)cc1` (stereo not drawn) [compound 115, 5'-Phenoxy-3'-furylmethyl-α-isopropenyl-4-methyl phenylacetate] and `C=C(C)C(C(=O)OCc1coc(Cc2ccccc2)c1)c1ccc(C)cc1` (stereo not drawn) [compound 128, 5'-Benzyl-3'-furylmethyl-α-isopropenyl-4-methylphenylacetate] are within 1.5-fold of each other in LC50: 5 ng/mL (≈ 0.0138 µM) for the first, 4.7 ng/mL (≈ 0.013 µM) for the second.

`CCC(C(=O)OCc1coc(Cc2ccccc2)c1)c1cccc(C)c1` (stereo not drawn) [compound 104, 5'-Benzyl-3'-furylmethyl-α-ethyl-3-methylphenylacetate] and `CCC(C(=O)OCc1coc(Cc2ccccc2)c1)c1ccc(C)cc1` (stereo not drawn) [compound 102, 5'-Benzyl-3'-furylmethyl-α-ethyl-4-methylphenylacetate] are within 1.5-fold of each other in LC50: 12 ng/mL (≈ 0.0344 µM) for the first, 9.5 ng/mL (≈ 0.0273 µM) for the second.

`CC(C)C(C(=O)OC(C#N)c1cccc(Oc2ccccc2)c1)c1ccc(Cl)cc1` (stereo not drawn) [compound 231] and `Cc1ccc(C(C(=O)OC(C#N)c2cccc(Oc3ccccc3)c2)C(C)C)cc1` (stereo not drawn) [compound 227] are within 1.5-fold of each other in LC50: 1.4 ng/mL (≈ 0.00333 µM) for the first, 1.9 ng/mL (≈ 0.00476 µM) for the second.

`CCc1ccc(C(C(=O)OCc2coc(Cc3ccccc3)c2)C(C)C)cc1` (stereo not drawn) [compound 214] and `Cc1ccc(C(C(=O)OCc2coc(Cc3ccccc3)c2)C(C)C)cc1` (stereo not drawn) [compound 103, 5'-Benzyl-3'-furylmethyl-α-isopropyl-4-methylphenylacetate] are within 1.5-fold of each other in LC50: 12.7 ng/mL (≈ 0.0337 µM) for the first, 9.2 ng/mL (≈ 0.0254 µM) for the second.

Compared with `CSc1ccc(C(C(=O)OCc2cccc(Oc3ccccc3)c2)C(C)C)cc1` (stereo not drawn) [compound 298], `CC(C)C(C(=O)OCc1cccc(Oc2ccccc2)c1)c1ccc(F)cc1` (stereo not drawn) [compound 210] is 2.8-fold lower in LC50: 9.7 ng/mL (≈ 0.0239 µM) for the first, 3.5 ng/mL (≈ 0.00925 µM) for the second.

Compared with `Cc1ccc(C(C)C(=O)OCc2cccc(Oc3ccccc3)c2)cc1` (stereo not drawn) [compound 183], `CCC(C(=O)OCc1cccc(Oc2ccccc2)c1)c1ccc(Cl)cc1` (stereo not drawn) [compound 177] is 12-fold lower in LC50: 88.5 ng/mL (≈ 0.255 µM) for the first, 7.4 ng/mL (≈ 0.0194 µM) for the second.

Compared with `C=CCC1=C(C)C(OC(=O)C(CC)c2ccco2)CC1=O` (stereo not drawn) [compound 16, 2'-Allyl-3'-methyl-2'-cyclopentene-1'-one-4"-yl-α-ethyl-2-furylacetate], `C=C(C)C(C(=O)OCc1coc(Cc2ccco2)c1)c1ccc(C)cc1` (stereo not drawn) [compound 113, 5'-Furfuryl-3'-furylmethyl-α-isopropenyl-4-methylphenylacetate] is 3.8-fold higher in LC50: 1.4 ng/mL (≈ 0.00486 µM) for the first, 5.3 ng/mL (≈ 0.0151 µM) for the second.

First: Cc1ccc(C(C)C(=O)OCc2coc(Cc3ccccc3)c2)cc1 (stereo not drawn) [compound 181]
Second: CC(C)C(C(=O)OCc1coc(Cc2ccccc2)c1)c1ccc(Br)cc1 (stereo not drawn) [compound 212]
The LC50 of the first is 22-fold higher: 82 ng/mL (≈ 0.245 µM) for the first, 3.7 ng/mL (≈ 0.00866 µM) for the second.

`Cc1ccc(C(C(=O)OCc2ccc(Cc3ccccc3)cc2)C(C)C)cc1` (stereo not drawn) [compound 226] and `CCc1ccc(C(C(=O)OCc2cccc(Oc3ccccc3)c2)C(C)C)cc1` (stereo not drawn) [compound 215] are within 1.5-fold of each other in LC50: 13.5 ng/mL (≈ 0.0362 µM) for the first, 13.2 ng/mL (≈ 0.034 µM) for the second.

`Cc1cccc(C(C(=O)OCc2coc(Cc3ccccc3)c2)C(C)C)c1` (stereo not drawn) [compound 105, 5'-Benzyl-3'-furylmethyl-α-isopropyl-3-methylphenylacetate] and `CC(C)C(C(=O)OCc1coc(Cc2ccccc2)c1)c1cccc(Cl)c1` (stereo not drawn) [compound 204] are within 1.5-fold of each other in LC50: 10.5 ng/mL (≈ 0.029 µM) for the first, 7.5 ng/mL (≈ 0.0196 µM) for the second.

First: Cl[C@H]1[C@H](Cl)[C@@H](Cl)[C@@H](Cl)[C@H](Cl)[C@H]1Cl [Lindane, lindane, reference compound]
Second: C#CCc1ccc(COC(=O)C(CC)c2ccccc2)cc1 (stereo not drawn) [compound 10, 4'-Propargylbenzyl-α-ethylphenylacetate]
The LC50 of the first is 73-fold higher: 220 ng/mL (≈ 0.756 µM) for the first, 3 ng/mL (≈ 0.0103 µM) for the second.

First: CCC(C(=O)OCc1coc(Cc2ccccc2)c1)c1ccccc1C (stereo not drawn) [compound 110, 5'-Benzyl-3'-furylmethyl-α-ethyl-2-methylphenylacetate]
Second: C=C(C)C(C(=O)OCc1csc(Cc2ccccc2)c1)c1ccc(C)cc1 (stereo not drawn) [compound 112]
The LC50 of the first is 2.7-fold higher: 12.5 ng/mL (≈ 0.0359 µM) for the first, 4.6 ng/mL (≈ 0.0122 µM) for the second.

Work on `CCC(C(=O)OC(C#N)c1cccc(Oc2ccccc2)c1)c1ccccc1` (stereo not drawn) [compound 14, 3'-Phenoxy-α'-cyanobenzyl-α-ethylphenylacetate] yielded an LC50 of 2.6 ng/mL (≈ 0.007 µM).

system: adult mosquitoes (Culex pipiens); assay: Knock-down of adult mosquitoes by 0.2% oil preparation (Experimental Example 4); assay type: in vivo; conditions: 0.2% oil preparation, 0.7 ml, 1.5 Kg/cm^2, (70 Cm)^3 glass box, read-out: mosquitoes knocked down
Procedure: (§1) 0.2% oil preparation was prepared from each of the compounds (1), (2), (8), (14), (22), (25), (26), (27), (51), (62), (73), (82), (86), (88), to (90), (92), (94), (96), (111), (119), (121), (165), (175), (180), (184), (185), (195), (200), (201), and (208) and allethrin as a control using deodorized kerosene.

`CCC(C(=O)OCc1coc(Cc2ccccc2)c1)c1ccc([S+](C)[O-])cc1` (stereo not drawn) [compound 26, 5'-Benzyl-3'-furylmethyl-α-ethyl-4-methylsulfoxyphenylacetate] and `CCC(C(=O)OCc1cccc(Oc2ccccc2)c1)c1ccc(OC(C)=O)cc1` (stereo not drawn) [compound 25, 3'-Phenoxybenzyl-α-ethyl-4-acetoxyphenylacetate] cannot be ordered by pest or weed control at 0.2 %: greater than 80% for the first, greater than 80% for the second.

`CCC(C(=O)OCN1C(=O)C2=C(CCCC2)C1=O)c1c(C)cc(C)cc1C` (stereo not drawn) [compound 27, 3',4',5',6'-Tetrahydrophthalimidomethyl-2-ethyl-2,4,6-trimethylphenylacetate] and `COc1ccc(C(C(=O)OCN2C(=O)C3=C(CCCC3)C2=O)C(C)C)cc1` (stereo not drawn) [compound 73, 3',4',5',6'-Tetrahydrophthalimidomethyl-α-isopropyl-p-methoxyphenylacetate] cannot be ordered by pest or weed control at 0.2 %: greater than 80% for the first, greater than 80% for the second.

`C=C(C)C(C(=O)OCN1C(=O)C2=C(CCCC2)C1=O)c1ccc(OC)cc1` (stereo not drawn) [compound 90, 3',4',5',6'-Tetrahydrophthalimidomethyl-α-isopropenyl-4-methoxyphenylacetate] and `C=C(C)C(C(=O)OCc1cccc(Cc2ccccc2)c1)c1ccc(OC)cc1` (stereo not drawn) [compound 92, 3'-Benzylbenzyl-α-isopropenyl-4-methoxyphenylacetate] cannot be ordered by pest or weed control at 0.2 %: greater than 80% for the first, greater than 80% for the second.

`COc1ccc(C(C(=O)OCc2ccc(Cc3ccccc3)s2)C(C)C)cc1` (stereo not drawn) [compound 86, 5'-Benzyl-2'-thenylmethyl-α-isopropyl-4-methoxyphenylacetate] and `C#CCc1ccc(C(C#C)OC(=O)C(CC)c2ccc(OC)cc2)o1` (stereo not drawn) [compound 94, 5'-Propargyl-α'-ethynylfurfuryl-α-ethyl-4-methoxyphenylacetate] cannot be ordered by pest or weed control at 0.2 %: greater than 80% for the first, greater than 80% for the second.

Compound `CCC(C(=O)OC(C#N)c1cccc(Oc2ccccc2)c1)c1ccccc1` (stereo not drawn) [compound 14, 3'-Phenoxy-α'-cyanobenzyl-α-ethylphenylacetate] has a pest or weed control at 0.2 % greater than 80%.

same assay, conditions: read-out: mosquitoes knocked down

For `C=CCC1=C(C)C(OC(=O)C2C(C=C(C)C)C2(C)C)CC1=O` (stereo not drawn) [allethrin, reference compound], the pest or weed control at 0.2 % was greater than 80%.

system: oriental house flies; assay: Activity on knock-down against oriental house flies (Experimental Example 5); assay type: in vivo; conditions: 0.2% oil preparation, 0.7 ml, 1.5 Kg/cm^2, (70 cm)^3 glass box
Procedure: as §1
20 oriental house flies per group were released in a (70 cm)^3 volume glass box and sprayed with each of the oil preparations prepared in Experimental Example 4 from the compounds of Table 3 below and allethrin in an amount of 0.7 ml under a pressure of 1.5 Kg/cm^2.

First: C=CCC1=C(C)C(OC(=O)C2C(C=C(C)C)C2(C)C)CC1=O (stereo not drawn) [allethrin, reference compound]
Second: COc1ccc(C(C(=O)OCc2cccc(Cc3ccccc3)c2)C(C)C)cc1 (stereo not drawn) [compound 89, 3'-Benzylbenzyl-α-isopropyl-4-methoxyphenylacetate]
The “KT50 (50% knock-down time)” value of the first is higher: 186 s for the first, 155 s for the second.

system: oriental house flies; assay: Potentiation of insecticidal activity by addition of piperonyl butoxide, topical application (Experimental Example 6); assay type: in vivo; conditions: piperonyl butoxide 5 times active ingredient; acetone solution on thoracic dorsal plate
Procedure: To each of the compounds (22), (51), (62), (63), (82), (86), (125), (150), (160), (176), (177), (178), (184), (185), (191), (195), (200), (201), (204), (208), (210), (212) and (226) was added piperonyl butoxide in an amount of 5 times that of the active ingredient, respectively to prepare an acetone solution having a given concentration. Each of the thus prepared acetone solutions was applied onto a thoracic dosal plate of oriental house flies using a microshringe to observe a synergestic effect on insecticidal activity by piperonyl butoxide.

Compared with `C#CCc1ccc(C(C#C)OC(=O)C(c2ccc(C)cc2)C(C)C)o1` (stereo not drawn) [compound 160], `Cc1ccc(C(C(=O)OCc2ccc(Cc3ccccc3)cc2)C(C)C)cc1` (stereo not drawn) [compound 226] is lower in “Potentiation magnification of insecticidal activity by the addition of piperonyl butoxide” value (“Potentiation magnification” for short): 7.2 for the first, 4.5 for the second.

First: CCC(C(=O)OCc1cccc(Oc2ccccc2)c1)c1ccc(Br)cc1 (stereo not drawn) [compound 178]
Second: CCC(C(=O)OCc1cccc(Oc2ccccc2)c1)c1ccc(Cl)cc1 (stereo not drawn) [compound 177]
The “Potentiation magnification” value of the first is lower: 5.4 for the first, 5.8 for the second.

Compared with `COc1ccc(C(C(=O)OCc2ccc(Cc3ccccc3)s2)C(C)C)cc1` (stereo not drawn) [compound 86, 5'-Benzyl-2'-thenylmethyl-α-isopropyl-4-methoxyphenylacetate], `CC(C)C(C(=O)OCc1coc(Cc2ccccc2)c1)c1ccc(Br)cc1` (stereo not drawn) [compound 212] is higher in “Potentiation magnification” value: 4.5 for the first, 5.0 for the second.

First: CCC(C(=O)OC1C=C(Cc2ccccc2)C(=O)C1)c1ccc(F)cc1 (stereo not drawn) [compound 191]
Second: CC(C)C(C(=O)OCc1cccc(Oc2ccccc2)c1)c1ccc(F)cc1 (stereo not drawn) [compound 210]
The “Potentiation magnification” value of the first is lower: 4.3 for the first, 4.8 for the second.

For `CC(C)C(C(=O)OCc1coc(Cc2ccccc2)c1)c1cccc(Cl)c1` (stereo not drawn) [compound 204], the “Potentiation magnification” value was 4.7.
